Among the data in US20260250325A1, “Antiviral Polypeptide Membrane Fusion Inhibitor, and Preparation Method and Application Thereof” (priority 2025, published 2026) are EC50 and Kd values, retold here.

By EC50 is commonly meant the concentration needed to bring the measured effect to its halfway point. The low end stands for greater potency, the high end for weaker potency. Usually Kd stands for the free concentration of one partner at which half of the binding sites on the other are occupied at equilibrium, for simple one-to-one binding. Low values mean higher affinity, high ones lower affinity.

Where a SMILES comes first, the peptide text is derived from it. The star is where a group is joined. Succinyl(4-O-cholesteryl) = CC(C)CCC[C@@H](C)[C@H]1CC[C@H]2[C@@H]3CC=C4C[C@@H](OC(=O)CCC(=O)*)CC[C@]4(C)[C@H]3CC[C@]12C; X1 = CC(C)CCCC(C)C1CCC2C3CC=C4CC(OC(=O)CCC(=O)*)CCC4(C)C3CCC12C

One assay deals with hMPV B1. The assay is classed as cell-based. Particulars: Vero cells, plaque reduction. The protocol:
(§1) African green monkey kidney cells (Vero) were sourced from the ATCC, with catalog number CCL-81. The cells were cultured in a DMEM culture solution in which 10% fetal bovine serum, 1% non-essential amino acids, 1% sodium pyruvate, 1% L-glutamine, 100 U/ml penicillin, and 100 μg/ml streptomycin were added.
(§2) A hMPV plaque experiment culture medium consisted of an Opti-MEM culture solution added with 1% non-essential amino acids, 100 U/mL penicillin, and 100 μg/mL streptomycin.
(§3) hMPV virus strains A2 and B1 were constructed by WuXi App Tec.
(§4) This study used a plaque reduction experiment to detect the in-vitro activity of a test sample against the hMPV virus strains A2 and B1.
(§5) The test sample and an experimental system were tested at 8 concentrations in duplicated wells. The Vero cells were digested with trypsin and then diluted to a concentration of 400,000 cells per milliliter by using a cell culture solution containing 2% serum. The diluted cells were added to a 96-well cell test board, with 100 μL per well, corresponding to 40000 cells per well. The cells were cultured overnight in a 37° C. incubator with 5% CO2.
(§6) On the second day, the test sample was diluted in an experimental culture medium at a fold ratio. The sample diluted at a fold ratio and an equal volume of virus (approximately 200 PFU per well) were well mixed and incubated at 33° C. in 5% CO2 for 1 h. Then, the culture solution in the 96-well cell test board was discarded, the sample virus mixed solution (100 μL) was added to the 96-well cell culture plate, and incubated at 37° C. in 5% CO2 for 2 hours. After 2 h, the sample virus mixed solution was discarded, 200 μL of an experiment culture medium containing the test sample with a corresponding concentration was added, and the culture solution contained 0.8% CMC and 5 μg/ml trypsin. A final concentration of DMSO in the culture solution was 0.5%. A system control antibody was directly added to the experiment culture solution containing 0.8% CMC and 5 μg/ml trypsin. A cell control (cells, without compound treatment or viral infection) and a viral control (cell infection virus, without compound treatment) were set. The cells were cultured for 1 day in the 33° C. incubator with 5% CO2.
(§7) The cells were fixed with 4% paraformaldehyde, and then permeabilization was performed with 0.5% Triton X-100. After the plate was washed with DPBS, a hMPV specific antibody (1:2000 dilution) was added and incubated at 37° C. for 1.5 h. Then, a secondary antibody (1:1000 dilution) was added and incubated at 37° C. for 1 hour. The secondary antibody was discarded, a TrueBlue solution was added, dyeing was performed for approximately 10 minutes; and the plate was washed with running water and then air-dried, and the number of spots in each well was counted by using a microplate imaging counter.
(§8) Raw data was used for analyzing the antiviral activity of the test samples. A calculation formula was shown as follows.
(§9) % inhibition rate=100−(sample value-cell control average value)/(virus control average value-cell control average value)×100
(§10) Non-linear fitting analysis was performed on the inhibition rate of the sample by using GraphPad Prism (version 10), so as to calculate an EC50 value for the sample. A fitting formula was log (inhibitor) vs. response-Variable slope (four parameters).

In a further assay the test system is hMPV A2. The assay is classed as cell-based. Particulars: Vero cells, plaque reduction. How it is done: as §1, §2, §3, §4, §5, §6, §7, §8, §9, §10
The next assay concerns the target T1, hPIV-N51 (139-189) (Human parainfluenza 3 virus, UniProt P06828).
T1 construct: hPIV-N51 (139-189)
Kind of assay: SPR affinity to hPIV-N51 coupled on CM5 chip. The assay is classed as binding. The protocol: hMPV and hPIV were two viruses having a typical Class I fusion protein-F protein. An F protein precursor F0 was cracked into F1 and F2 subunits. […] When the compound flowed through a chip surface, changes in an SPR signal were monitored in real time, binding and dissociation processes were recorded, and a binding rate constant (ka) and a dissociation rate constant (kd) were further obtained through kinetic analysis, thereby calculating an equilibrium dissociation constant (KD=kd/ka).
A CM5 chip with a catalog number 29149603, an amino coupling reagent kit with a catalog number BR100050, HBS-EP+Buffer (10×), sodium acetate (pH 4.0), and a 10 mM glycine-HCl buffer (pH 2.0) were all purchased from GE Health.
CM5 chip coupling: Channels 2 and 4 of the CM5 chip were activated for 7 min by using a freshly-prepared mixture of 50 mM Hydroxy succinimide (NHS) and 200 mM 1-(3-Dimethylaminopropyl)-3-ethylcarbodiimide (EDC) according to 1:1; and then, hMPV-N46 or hPIV-N51 was diluted and dissolved with sodium acetate with 4.0 pH to a concentration of 30 μM, with a flow rate of 10 μl/min and time of 600 s. An experimental buffer was HBS-EP+buffer (1×). Finally, the chip was blocked with 1 M ethanolamine. The instrument was set to a temperature of 25° C.
Affinity detection: the buffer used in the experiment was HBS-EP+buffer (1×), and a multi-cycle dynamic mode was used. Channels 1 and 3 of the chip served as blank reference channels; polypeptides to be detected sequentially flowed through Channels 2 and 4 at concentrations of 0 μM, 0.04 µM, 0.12 µM, 0.37 μM, 1.11 µM, 3.33 µM, 10 µM, and 30 μM; the flow rate was 30 μl/min, binding was performed for 180 s, and dissociation was performed for 120 s. Finally, the chip was regenerated by injecting 10 mM glycine (pH 2.0). The instrument was set to a temperature of 25° C.

T1 sequence (P06828 139-189): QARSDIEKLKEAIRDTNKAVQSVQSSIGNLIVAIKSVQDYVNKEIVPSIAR

Take `CC[C@H](C)[C@H](NC(=O)[C@H](CCCCN)NC(=O)[C@H](CCCCN)NC(=O)[C@H](CC(C)C)NC(=O)[C@H](CO)NC(=O)[C@H](CCC(=O)O)NC(=O)[C@H](CCC(=O)O)NC(=O)[C@@H](NC(=O)[C@H](CCCCN)NC(=O)[C@H](CCCCN)NC(=O)[C@H](CC(N)=O)NC(=O)[C@@H](NC(=O)[C@H](CCC(=O)O)NC(=O)[C@H](CCC(=O)O)NC(=O)[C@@H](NC(=O)[C@H](CCCCN)NC(=O)[C@H](CCCCN)NC(=O)[C@H](CC(=O)O)NC(=O)[C@H](Cc1ccccc1)NC(=O)[C@H](CCC(=O)O)NC(=O)[C@H](CC(=O)O)NC(=O)[C@H](Cc1c[nH]c2ccccc12)NC(C)=O)[C@@H](C)CC)C(C)C)[C@@H](C)CC)C(=O)N[C@@H](CCC(=O)O)C(=O)N[C@@H](CCC(=O)O)C(=O)N[C@@H](CO)C(=O)N[C@@H](CC(=O)O)C(=O)N[C@@H](CCCCN)C(=O)N[C@@H](CCCCN)C(=O)N[C@@H](CC(C)C)C(=O)N[C@@H](CCC(=O)O)C(=O)N[C@@H](C)C(=O)N[C@@H](C)C(=O)N[C@@H](C)C(=O)N[C@@H](CCCCN)C(=O)N[C@@H](CCCCNC(=O)CCC(=O)O[C@H]1CC[C@@]2(C)C(=CC[C@H]3[C@@H]4CC[C@H]([C@H](C)CCCC(C)C)[C@@]4(C)CC[C@@H]32)C1)C(N)=O` [Compound 13] (Ac-WDEFDKKIEEVNKKIEESLKKIEESDKKLEAAAKK(Succinyl(4-O-cholesteryl))-NH2): the EC50 with hMPV B1 stood at 6.18 nM; in the assay on hMPV A2, 11.7 nM. Moreover, binding at hPIV-N51 (139-189) was put at a Kd of 2280 nM.
`CC[C@H](C)[C@H](NC(=O)[C@H](CCCCN)NC(=O)[C@H](CCCCN)NC(=O)[C@H](CC(C)C)NC(=O)[C@H](CO)NC(=O)[C@H](CCC(=O)O)NC(=O)[C@H](CCC(=O)O)NC(=O)[C@@H](NC(=O)[C@H](CCCCN)NC(=O)[C@H](CCCCN)NC(=O)[C@H](CC(N)=O)NC(=O)[C@@H](NC(=O)[C@H](CCC(=O)O)NC(=O)[C@H](CCC(=O)O)NC(=O)[C@@H](NC(=O)[C@H](CCCCN)NC(=O)[C@H](CCCCN)NC(=O)[C@H](CCCCN)NC(=O)[C@H](CC(=O)O)NC(=O)[C@H](Cc1ccccc1)NC(=O)[C@H](CCC(=O)O)NC(=O)[C@H](CC(=O)O)NC(C)=O)[C@@H](C)CC)C(C)C)[C@@H](C)CC)C(=O)N[C@@H](CCC(=O)O)C(=O)N[C@@H](CCC(=O)O)C(=O)N[C@@H](CO)C(=O)N[C@@H](CC(=O)O)C(=O)N[C@@H](CCCCN)C(=O)N[C@@H](CCCCN)C(=O)N[C@@H](CC(C)C)C(=O)N[C@@H](CCC(=O)O)C(=O)N[C@@H](CCC(=O)O)C(=O)N[C@H](C(=O)NCC(=O)N[C@@H](CO)C(=O)NCC(=O)N[C@@H](CO)C(=O)NCC(=O)N[C@@H](CCCCNC(=O)CCC(=O)O[C@H]1CC[C@@]2(C)C(=CC[C@H]3[C@@H]4CC[C@H]([C@H](C)CCCC(C)C)[C@@]4(C)CC[C@@H]32)C1)C(N)=O)C(C)C` [Compound 15] (Ac-DEFDKKKIEEVNKKIEESLKKIEESDKKLEEVGSGSGK(Succinyl(4-O-cholesteryl))-NH2): the EC50 worked out at 5.18 nM in the assay with hMPV B1 and 17.9 nM in the assay with hMPV A2. Besides, the Kd on hPIV-N51 (139-189) was determined as 1390 nM.
As to `CC[C@H](C)[C@H](NC(=O)[C@H](CCCCN)NC(=O)[C@H](CCCCN)NC(=O)[C@H](CC(C)C)NC(=O)[C@H](CO)NC(=O)[C@H](CCC(=O)O)NC(=O)[C@H](CCC(=O)O)NC(=O)[C@@H](NC(=O)[C@H](CCCCN)NC(=O)[C@H](CCCCN)NC(=O)[C@H](CC(N)=O)NC(=O)[C@@H](NC(=O)[C@H](CCC(=O)O)NC(=O)[C@H](CCC(=O)O)NC(=O)[C@@H](NC(=O)[C@H](CCCCN)NC(=O)[C@H](CCCCN)NC(=O)[C@H](CC(=O)O)NC(=O)[C@H](Cc1ccccc1)NC(=O)[C@H](CCC(=O)O)NC(=O)[C@H](CC(=O)O)NC(=O)[C@H](CO)NC(C)=O)[C@@H](C)CC)C(C)C)[C@@H](C)CC)C(=O)N[C@@H](CCC(=O)O)C(=O)N[C@@H](CCC(=O)O)C(=O)N[C@@H](CO)C(=O)N[C@@H](CC(=O)O)C(=O)N[C@@H](CCCCN)C(=O)N[C@@H](CCCCN)C(=O)N[C@@H](CC(C)C)C(=O)N[C@@H](CCC(=O)O)C(=O)N[C@@H](C)C(=O)N[C@@H](C)C(=O)N[C@@H](C)C(=O)N[C@@H](CCCCN)C(=O)N[C@@H](CCCCNC(=O)CCC(=O)O[C@H]1CC[C@@]2(C)C(=CC[C@H]3[C@@H]4CC[C@H]([C@H](C)CCCC(C)C)[C@@]4(C)CC[C@@H]32)C1)C(N)=O` [Compound 16] (Ac-SDEFDKKIEEVNKKIEESLKKIEESDKKLEAAAKK(Succinyl(4-O-cholesteryl))-NH2), the EC50 worked out at 4.5 nM in the assay on hMPV B1 and 7.35 nM in the assay with hMPV A2. This compound also returned a Kd on hPIV-N51 (139-189) of 5400 nM.
In the case of `CC[C@H](C)[C@H](NC(=O)[C@H](CCCCN)NC(=O)[C@H](CCCCN)NC(=O)[C@H](CC(C)C)NC(=O)[C@H](CO)NC(=O)[C@H](CCC(=O)O)NC(=O)[C@H](CCC(=O)O)NC(=O)[C@@H](NC(=O)[C@H](CCCCN)NC(=O)[C@H](CCCCN)NC(=O)[C@H](CC(N)=O)NC(=O)[C@@H](NC(=O)[C@H](CCC(=O)O)NC(=O)[C@H](CCC(=O)O)NC(=O)[C@@H](NC(=O)[C@H](CCCCN)NC(=O)[C@H](CCCCN)NC(=O)[C@H](CC(=O)O)NC(=O)[C@H](Cc1ccccc1)NC(=O)[C@H](CCC(=O)O)NC(=O)[C@H](CC(=O)O)NC(C)=O)[C@@H](C)CC)C(C)C)[C@@H](C)CC)C(=O)N[C@@H](CCC(=O)O)C(=O)N[C@@H](CCC(=O)O)C(=O)N[C@@H](CO)C(=O)N[C@@H](CC(=O)O)C(=O)N[C@@H](CCCCN)C(=O)N[C@@H](CCCCN)C(=O)N[C@@H](CC(C)C)C(=O)N[C@@H](CCC(=O)O)C(=O)N[C@@H](CCC(=O)O)C(=O)N[C@H](C(=O)N[C@@H](CCC(=O)O)C(=O)N[C@@H](C)C(=O)N[C@@H](C)C(=O)N[C@@H](C)C(=O)N[C@@H](CCCCN)C(=O)N[C@@H](CCCCNC(=O)CCC(=O)OC1CCC2(C)C(=CCC3C2CCC2(C)C(C(C)CCCC(C)C)CCC32)C1)C(N)=O)C(C)C` (stereo partly shown) [Compound 21] (Ac-DEFDKKIEEVNKKIEESLKKIEESDKKLEEVEAAAKK(X1)-NH2), the EC50 was determined as 4.92 nM with hMPV B1 and 11.2 nM with hMPV A2.
Taken in the same sequence, the figures for “Ac-SLEQVNEKINQSLAFIRKSDEINQSDEEVNKSDELLEAAAKK-NH2 [Compound 50]” were 5.95 nM and 13.3 nM.
